According to ChEMBL document CHEMBL1177690, “Target-specific control of lymphoid-specific protein tyrosine phosphatase (Lyp) activity” (Bioorg Med Chem, 2010):

Assay: Inhibition of Lyp CCPGCC mutant expressed in Escherichia coli […]

Structure (SMILES): O=C(O)c1ccccc1-c1c2ccc(=O)c([As]3SCCS3)c-2oc2c([As]3SCCS3)c(O)ccc12
- IC50: 625 nM
